# Tested on: calcineurin
# Test: Calcineurin activity assay in whole blood lysates (dephosphorylation of 32P-labelled 19 amino acid peptide substrate)
# Format: biochemical
# Settings: in the presence of okadaic acid
# Description: Calcineurin activity was assayed using a modification of the method previously described by Fruman et al. (A Proc Natl Acad Sci USA, 1992) and in U.S. Pat. No. 6,605,593. Whole blood lysates are evaluated for their ability to dephosphorylate a ^32P-labelled 19 amino acid peptide substrate in the presence of okadaic acid, a phosphatase-type 1 and 2 inhibitor. Background phosphatase 2C activity (CsA and okadaic acid resistant activity) is determined and subtracted from each sample, with the assay performed in the presence and absence of excess added ISA247. The remaining phosphatase activity is taken as calcineurin activity.
structure (smiles),measurement,setting,value
C=C/C=C/C[C@@H](C)[C@@H](O)[C@H]1C(=O)N[C@@H](CC)C(=O)N(C)CC(=O)N(C)[C@@H](CC(C)C)C(=O)N[C@@H](C(C)C)C(=O)N(C)[C@@H](CC(C)C)C(=O)N[C@@H](C)C(=O)N[C@H](C)C(=O)N(C)[C@@H](CC(C)C)C(=O)N(C)[C@@H](CC(C)C)C(=O)N(C)[C@@H](C(C)C)C(=O)N1C [Trans ISA247],Metabolite EC50,calcineurin inhibition,0.208 µg/mL
same,Metabolite Emax,percent calcineurin inhibition,107%

# From US20060223743A1, “Metabolites of cyclosporin analogs” (priority 2004, published 2006)
